Assay results from publication PMC11741150, “Synthesis and In Vitro Antileishmanial Efficacy of Novel Ethylene Glycol Analogues of Benzothiadiazine‐1,1‐dioxide” (Chemistry & Biodiversity, 2024).
Where “and” joins values, the source holds several entries; their conditions need not be identical. Identical values can stand only once.

Key:
Vero cells = experiment: Cytotoxicity resazurin assay; assay type: cell-based; details: Chlorocebus sabaeus, 48 hours, ±standard deviation, maximum concentration 2 mM
Procedure: The cytotoxicity of the synthesised compounds was evaluated using the resazurin assay. The assay involves live cells converting oxidized blue resazurin dye to pink, highly fluorescent resorufin through irreversible enzymatic reduction.[44] This non‐toxic reagent is a useful instrument for determining drug toxicity and cell growth.
Dulbecco's modified Eagle's medium (DMEM) with high glucose (Separations) supplemented with 1 % L‐glutamine, non‐essential amino acids, and penicillin‐streptomycin (Sigma Aldrich), and 10 % fetal bovine serum (Thermofisher Scientific) was used to cultivate Vero cells. The cells were kept at 37 °C and 5 % CO2 in a humidified environment. For the assay, 96 well plates were prepared by pipetting 100 μL of cell suspension (60 000 cells/mL) per well and incubating the plates for 24 hours. The cells were then treated with seven two‐fold concentration dilutions of: (1) 1 μM emetine dihydrochloride (Sigma Aldrich) solution (positive control); (2) 2 mM experimental compound solutions. Cell‐free growth medium was included as a blank. The treated plates were incubated for 48 hours.
To initiate the resazurin assay, 50 μL of sterile‐filtered resazurin sodium salt (Sigma Aldrich) solution (0.01 % in phosphate‐buffered saline (PBS)) was added to the prepared plates and then incubated for 2 hours. A Thermofisher Scientific's GO Multiscan plate reader was used to measure the absorbance at 570 and 600 nm. SkanIt 4.0 Research Edition software was used to perform the data analysis for every biological replicate. After subtracting background absorbance (600 nm) from the 570 nm absorbance data, the mean absorbance was computed, and the percentage of viable cells was estimated using the formula below: Cellviability%=(ΔAbssample-ΔAbsblank)/(ΔAbsnegcontrol-ΔAbsblank)X100
GraphPad Prism 5 was used to calculate the IC50 and Z‐score for each compound's biological replicate. The mean IC50 of the biological replicates and standard deviation (SD) was calculated to determine the final IC50 of each compound.

[1] = system: Leishmania donovani (strain 9515 (MHOM/IN/95/9515)) promastigotes; experiment: Antipromastigote resazurin assay; assay type: cell-based; details: for IC50 / inhibition at 10 µM: Leishmania donovani; for IC50: promastigotes, maximum concentration 2 mM, ±standard deviation, read-out: L. donovani 9515 antipromastigote IC50; for inhibition at 10 µM: L. donovani strain 9515 promastigotes, read-out: Antipromastigote growth inhibition (%)
Procedure: The antipromastigote activity of synthesised compounds was evaluated using a modified method of the resazurin assay[45, 46] against two Leishmania strains.
Leishmania donovani (strain 9515 (MHOM/IN/95/9515)) and L. major (strain NIH S (MHOM/SN/74/Seidman)) promastigotes were cultured in M199 with Hank's salts and 0.68 mM L‐glutamine (Sigma Aldrich) supplemented with 0.0005 % hemin, 0.0001 % biotin, 0.1 mM adenine (Sigma Aldrich), 10 % fetal bovine serum, 50 U/mL Penicillin/Streptomycin solution, 4.2 mM sodium bicarbonate and 25 mM Hepes buffer. The promastigotes were maintained at an adjusted pH of 7.3–7.4 growth medium at 26 °C. […] Amphothericin B (10 μM) served as the standard antileishmanial drug and parasite‐free growth medium was included as the blank. The plates were incubated for 48 hours at 26 °C in humidified environment.
Following the initial incubation, 50 μL of resazurin solution (0.01 % in PBS) was added to each well and the plates underwent further incubation at 26 °C for 24 hours in the dark. A Thermofisher Scientific's GO Multiscan plate reader was used to measure absorbance at 570 nm and 600 nm. SkanIt 4.0 Research Edition software was used to perform the data analysis for every biological replicate. Background absorbance (600 nm) was subtracted from the 570 nm absorbance data and the mean absorbance was computed. The cell viability and data analysis were performed as indicated in the cytotoxicity assay.

[2] = system: L. major (strain NIH S (MHOM/SN/74/Seidman)) promastigotes; experiment: Antipromastigote resazurin assay; assay type: cell-based, Leishmania major; details: for IC50 / inhibition at 10 µM: Leishmania major; for IC50: promastigotes, maximum concentration 2 mM, ±standard deviation; for inhibition at 10 µM: L. major strain IR‐173 (as headed) promastigotes, read-out: Antipromastigote growth inhibition (%)
[3] = system: L. donovani strain 9515 intramacrophage amastigotes; experiment: Intramacrophage antileishmanial growth inhibition assay; assay type: cell-based; details: Leishmania donovani, read-out: Anti‐amastigote growth inhibition (%)
Procedure: (§1) A modified resazurin assay[47, 48] and the two Leishmania strains were also used to assess the efficacy of synthesised compounds against intramacrophage parasites.
(§2) Human monocytic leukemia (THP‐1) cells were cultured in RPMI 1640 medium with L‐glutamine (Sigma Aldrich) supplemented with, 1 % penicillin/streptomycin solution (Lonza), 10 % fetal bovine serum (FBS; Thermofisher Scientific) and 2 g/L sodium bicarbonate (Sigma Aldrich). The cells were maintained in a humidified environment at 37 °C and 5 % CO2.
(§3) For the intramacrophage assay, a 500 000 cells/mL THP‐1 cell suspension was prepared, 25 ng/mL phorbol 12‐myristate 13‐acetate (PMA) added and the suspension seeded in 96 well plates (Nunc, Thermofisher Scientific) at 200 μL/well. Cell‐free growth medium was included as the blank. The plates were incubated for 48 hours in a humidified environment at 37 °C and 5 % CO2 to encourage the differentiation of the suspended cells to adherent macrophages.
(§4) To eliminate non‐adherent cells after the PMA treatment, the plates were carefully washed once with warm PBS. Then, a premade promastigote suspension ([…]) was added. The suspension consisted of stationary phase promastigotes in THP‐1 cell growth medium, with a multiplicity of infection (MOI) of 30 : 1. Parasite‐free medium was also added to selected THP‐1 cell‐containing wells to serve as parasite blank. The plates were thoroughly rinsed four times with warm PBS to get rid of extracellular parasites after being cultured for 24 hours to encourage macrophage infection. The cells were then treated with 160 μL of growth medium and 40 μL of either solvent (parasite blank and negative control with parasites) or 40 μL of compound solutions. For a dual‐point activity screening, 10 μM and 2 mM of compound were prepared in separate plates. Amphothericin B (10 μM) served as the standard antileishmanial drug. The plates were incubated for 72 hours in a humidified environment at 37 °C and 5 % CO2.
(§5) For the plates treated with 10 μM of compound, any serum and extracellular promastigotes that remained were carefully removed from the wells by rinsing with warm PBS. The wells were then treated with 20 μL of 0.05 % sodium dodecyl sulphate (SDS; Sigma Aldrich) in PBS for 30 sec to lyse the macrophages. Lysis was terminated with the addition of 180 μL promastigote growth medium with 10 % FBS. For the resazurin assay, 10 μL of resazurin solution (0.025 % in PBS) was added to each well and the plates were further incubated at 37 °C in for 72 hours in the dark to measure amastigote recovery to proliferative promastigotes.
(§6) A Thermofisher Scientific's GO Multiscan plate reader was used to measure absorbance at 570 nm and 600 nm. SkanIt 4.0 Research Edition software was used to perform the data analysis for every biological replicate. Background absorbance (600 nm) was subtracted from the 570 nm absorbance data and the mean absorbance was computed.
(§7) For the activity screening, the following formula was used to determine growth inhibition percentage: Growthinhibition%=100-[(ΔAbssample-ΔAbsblank)/(ΔAbsnegcontrol-ΔAbsblank)X100]

[4] = system: L. major intramacrophage amastigotes; experiment: as above; assay type: cell-based, Leishmania major; details: for inhibition at 10 µM: Leishmania major, L. major strain IR‐173 (as headed) intramacrophage amastigotes, read-out: Anti‐amastigote growth inhibition (%); for host cell and parasite death in L. major anti‐amastigote screening: 2 mM of compound, L. major only
Procedure: as §1, §2, §3, §4, §5
Any remaining extracellular promastigotes were afterwards carefully removed from the wells by rinsing with warm PBS. The wells were then treated with 50 μL of resazurin solution (0.01 % in PBS) and the plates were further incubated at 37 °C for 4 hours in the dark to assess host cell viability.
as §6, §7

[5] = system: L. donovani 1S promastigotes; design: method as in PMID 33491807; details: read-out: L. donovani 1S promas. IC50; cited from earlier work
Vero = system: Vero; design: method as in PMID 33491807; details: cited from earlier work
[6] = system: L. donovani strain 1S amastigote; design: method as in PMID 33491807; details: previous study; cited from earlier work

IC50 [1] [µM] | IC50 [2] [µM] | melting point [°C] | Structure (SMILES) | IC50 (Vero cells) [µM] | SI1: Selectivity index=IC50 Vero/L. donovani 9515 antipromastigote IC50 [1] | inhibition at 10 µM [1] [%] | SI2: Selectivity index=IC50 Vero/L. major antipromastigote IC50 [2] | inhibition at 10 µM [2] [%] | inhibition at 10 µM [3] [%] | inhibition at 10 µM [4] [%] | IC50 [5] | IC50 (Vero) [µM] | activity against L. donovani strain 1S amastigote [6] | host cell and parasite death in L. major anti‐amastigote screening [4]
612 ± 30.9 | 861 ± 46.5 | 223 to 226 | O=S1(=O)NC=Nc2ccccc21 [Compound 1, 2H‐Benzo[e][1,2,4]thiadiazine‐1,1‐dioxide] | 323 ± 215 | 0.53 | 10 | 0.38 | 0 | 0 | 0 | < 10 µM and 7.33 µM | > 100 | sub‐micromolar activity | –
839 ± 41.9 | – | 167 to 170 | O=S1(=O)c2ccccc2N=CN1CCO [Compound 2, 2‐(2‐Hydroxyethyl)‐2H‐benzo[e][1,2,4]thiadiazine‐1,1‐dioxide] | 752 ± 174 | 0.90 | 0 | 0.70 | 0 | 0 | 0 | – | – | – | –
906 ± 62.1 | – | 217 to 220 | O=S1(=O)c2ccccc2N=CN1CCOc1ccc(Br)cc1 [Compound 10, 2‐[2‐(4‐Bromophenoxy)ethyl]‐2H‐benzo[e][1,2,4]thiadiazine‐1,1‐dioxide] | 663 ± 24 | 0.73 | 0 | 0.47 | 0 | 0 | 0 | – | – | – | –
360 ± 12.5 | 455 ± 9.55 | – | C=CCOCCN1C=Nc2ccccc2S1(=O)=O [Compound 13, 2‐[2‐(Allyloxy)ethyl]‐2H‐benzo[e][1,2,4]thiadiazine‐1,1‐dioxide] | 531 ± 15.7 | – | 15 | 1.17 | 0 | 0 | 0 | – | – | – | killed both parasite and host cell
238 ± 14.5 | 185 ± 22.1 | – | C#CCN1C=Nc2ccccc2S1(=O)=O [Compound 14, 2‐(Prop‐2‐yn‐1‐yl)‐2H‐benzo[e][1,2,4]thiadiazine‐1,1‐dioxide] | 535 ± 21.8 | 2.25 | 1 | 2.89 | 23 | 0 | 0 | – | – | – | killed both parasite and host cell
